We go through 2 compounds from paper PMC7948503, “Optimization of a peptide ligand for the adhesion GPCR ADGRG2 provides a potent tool to explore receptor biology” (The Journal of Biological Chemistry, 2020).

Non-standard residues stand in square brackets, D forms with d. Residues, ends and D or L forms follow the SMILES beside them. *: point of attachment. FITC = O=C1OC2(c3ccc(O)cc3Oc3cc(O)ccc32)c2ccc(NC(=S)*)cc21; Phe(4-Me) = Cc1ccc(C[C@H](N)C(=O)O)cc1

For one assay, the target named is T1, Rluc-ADGRG2-ΔGPS-β F772A (Mus musculus, UniProt Q8CJ12, F786A).
T1 construct: expressed in transfected cells; host or cells: HEK293
T1 sequence (Q8CJ12 614-1009 F786A): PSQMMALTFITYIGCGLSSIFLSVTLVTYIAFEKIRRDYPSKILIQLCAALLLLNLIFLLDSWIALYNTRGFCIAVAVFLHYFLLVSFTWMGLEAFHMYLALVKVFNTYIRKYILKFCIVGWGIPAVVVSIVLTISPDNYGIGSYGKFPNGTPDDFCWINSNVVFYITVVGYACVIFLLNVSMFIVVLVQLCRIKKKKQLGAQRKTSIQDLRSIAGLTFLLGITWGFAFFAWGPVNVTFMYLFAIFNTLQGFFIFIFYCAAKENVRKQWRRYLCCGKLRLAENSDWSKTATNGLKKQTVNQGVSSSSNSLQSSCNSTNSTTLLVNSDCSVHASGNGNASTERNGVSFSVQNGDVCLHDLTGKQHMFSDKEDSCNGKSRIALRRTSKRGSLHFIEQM
The assay can be described thus: BRET binding of FITC-VPM-p15. Particulars: mutant F772A. As to the method:
(§1) The binding capacities of ADGRG2 WT or its mutants for VPM-p15 were determined by BRET assay, which has been used in previous studies ([27], [28], [29]). We fused the N terminus of ADGRG2 with a Rluc fragment and coupled FITC to the C terminus of VPM-p15 to facilitate BRET measurement. We stimulated the HEK293 cells transfected with Rluc-ADGRG2-ΔGPS-β wildtype (WT) or mutants by increasing the concentration of FITC-conjugated VPM-p15, and their binding abilities were determined by fitting the data with the saturation curves.
(§2) In the detection of binding capacities of ADGRG2 WT or its mutants for VPM-p15, HEK293 cells were transfected with Rluc-ADGRG2-ΔGPS-β or mutants. Transfected cells were stimulated by increasing the concentration of FITC-conjugated VPM-p15. Binding capacities were determined by BRET, EC50 values of ADGRG2 WT and its mutants for binding VPM-p15 were calculated by GraphPad, and data were normalized by EC50 of WT.
(In general: Bioluminescence resonance energy transfer reports proximity on the nanometre scale.)

Another assay addresses T2, Rluc-ADGRG2-ΔGPS-β V836A (Mus musculus, UniProt Q8CJ12, V850A).
T2 construct: expressed in transfected cells; host or cells: HEK293
The assay can be described thus: BRET binding of FITC-VPM-p15. As to conditions: mutant V836A. As to the method: as §1, §2

For a further assay, the target named is T3, ADGRG2-ΔGPS-β (Mus musculus, UniProt Q8CJ12).
T3 construct: the entire ECD (including the entire GPS motif) was removed (ADGRG2-ΔGPS-β); expressed in transfected cells; host or cells: HEK293
T3 sequence (Q8CJ12 618-1009 limits assumed, stated change not applied): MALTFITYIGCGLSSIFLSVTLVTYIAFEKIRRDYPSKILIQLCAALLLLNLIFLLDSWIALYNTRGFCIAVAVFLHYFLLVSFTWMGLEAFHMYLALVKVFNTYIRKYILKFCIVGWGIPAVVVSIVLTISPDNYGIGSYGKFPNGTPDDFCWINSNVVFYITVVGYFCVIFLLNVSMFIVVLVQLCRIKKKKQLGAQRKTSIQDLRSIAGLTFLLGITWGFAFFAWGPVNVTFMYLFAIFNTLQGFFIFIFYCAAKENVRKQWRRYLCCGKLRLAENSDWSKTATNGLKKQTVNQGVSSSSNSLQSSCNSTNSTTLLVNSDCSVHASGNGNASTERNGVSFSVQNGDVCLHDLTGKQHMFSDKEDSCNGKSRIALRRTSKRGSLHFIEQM
The assay can be described thus: GloSensor cAMP assay, HEK293 transfected with ADGRG2-ΔGPS-β. It counts as cell-based. An excerpt: Wildtype ADGRG2 full-length (ADGRG2-FL) was cloned from mouse total cDNA libraries using the following primers: forward, […]; reverse, […], and then ADGRG2-FL, ADGRG2 C-terminal truncation mutant (ADGRG2-β), and ADGRG2-ΔGPS-β (the entire ECD of ADGRG2 was deleted) were subcloned into the pcDNA3.1 expression vector. The ADGRG2-ΔGPS-β mutants (T610A, Y611A, C614A, S661A, W662A, I663A, L665A, Y666A，N667A, F671A, L679A, L683A, I730A, V731A, F741A, F747A, W757A, I758A, N759A, S760A, V762A, F764A, Y765A, V768A, V769A, F772A, V774A, W824A, F826A, F828A, F829A, V834A, V836A, F838A, M839A, I844A, F845A) were generated using a QuikChange Mutagenesis Kit (Stratagene). All mutations were verified by DNA sequencing.
Human embryonic kidney 293 (HEK293) cells were maintained in Dulbecco’s modified Eagle’s medium supplemented with 10% fetal bovine serum, penicillin (100 IU/ml), and streptomycin (100 μg/ml) as described ([6], [38]). For receptor or other protein expression, plasmids carrying the desired genes were transfected into cells using Lipofectamine 2000 (Invitrogen).
The Glosensor cAMP assay was performed as described ([6], [39], [40]). HEK293 cells were transfected with the GloSensor plasmid and the desired expression plasmids in 24-well dishes. Twenty-four hours after transfection, the cells were plated on 96-well plates at a cell density of 20,000 cells/well. The cells were maintained in Dulbecco’s modified Eagle’s medium for another 24 h, washed with PBS, and then incubated with 100 μl of solution containing 10% fetal bovine serum, 2% (v/v) GloSensor cAMP reagent, and 88% CO2-independent medium in each well for 2 h. The cAMP signal was examined using a luminescence counter (Mithras LB 940).
On the technique in general: Changes in cAMP serve as a functional read-out for many G protein-coupled receptors.

[1] abbreviates: Kd(mutated ADGRG2-ΔGPS-β)/Kd(WT).

T2 sequence (Q8CJ12 614-1009 V850A): as the sequence (Q8CJ12 614-1009 F786A) above, with A173F, V237A counted along it

Take `CC[C@H](C)[C@H](NC(=O)CNC(=O)[C@H](Cc1ccc(C)cc1)NC(=O)[C@H](CO)NC(=O)[C@@H](N)C(C)C)C(=O)N[C@@H](CC(C)C)C(=O)N[C@@H](CC(C)C)C(=O)N[C@@H](CC(=O)O)C(=O)N[C@@H](CC(C)C)C(=O)N[C@@H](CO)C(=O)N[C@@H](CCCNC(=N)N)C(=O)N[C@H](C(=O)N[C@@H](CO)C(=O)N[C@@H](CC(C)C)C(=O)N1CCC[C@H]1C(=O)N[C@@H](CCCCNC(=S)Nc1ccc2c(c1)C(=O)OC21c2ccc(O)cc2Oc2cc(O)ccc21)C(=O)O)[C@@H](C)O` [FITC-VPM-p15] (H-VS[Phe(4-Me)]GILLDLSRTSLPK(FITC)-OH; N-terminus and C-terminus assumed): the Fmut was 0.903 at Rluc-ADGRG2-ΔGPS-β F772A (setting [1]) and 1.315 on Rluc-ADGRG2-ΔGPS-β V836A (setting [1]). Also, the Bmax at Rluc-ADGRG2-ΔGPS-β F772A (binding Bmax (BRET)) was found to be 0.795±0.021; on Rluc-ADGRG2-ΔGPS-β V836A (binding Bmax (BRET)) it was 0.775±0.030.
The term EC50 denotes the concentration that produces a half-maximal response. High values mean weaker potency, low ones greater potency. In the case of `CC[C@H](C)[C@H](NC(=O)CNC(=O)[C@H](Cc1ccc(C)cc1)NC(=O)[C@H](CO)NC(=O)[C@@H](N)C(C)C)C(=O)N[C@@H](CC(C)C)C(=O)N[C@@H](CC(C)C)C(=O)N[C@@H](CC(=O)O)C(=O)N[C@@H](CC(C)C)C(=O)N[C@@H](CO)C(=O)N[C@@H](CCCNC(=N)N)C(=O)N[C@H](C(=O)N[C@@H](CO)C(=O)N[C@@H](CC(C)C)C(=O)N1CCC[C@H]1C(=O)O)[C@@H](C)O` [VPM-p15] (H-VS[Phe(4-Me)]GILLDLSRTSLP-OH), the EC50 stood at 1410 ± 160 nM on ADGRG2-ΔGPS-β (cAMP Glosensor, ADGRG2-ΔGPS-β, HEK293) and 1060 nM at ADGRG2-ΔGPS-β (receptor WT (Table S4), HEK293, cAMP Glosensor). In addition, the “EC50 compared with wildtype p15 or other mutants” value on ADGRG2-ΔGPS-β (concentration-response curves, cAMP Glosensor, ADGRG2-ΔGPS-β) is given as “significant lower EC50 than other mutants”.
